# Test results published in US9526243B2, “Pollination success and seed set in corn hybrid seed production” (priority 2012, dated 2016).
# How the values were obtained:
# Type in all cases: in vivo, corn (maize, Zea mays)
# [1] = tested on: male parent plant of Hybrid A (corn)
# Description: Hybrid A is a three-way corn hybrid which performs well in rain-fed areas in India. The female parent of this hybrid is a single cross and male parent is an inbred. […] The ear height in female is 94 cm and male plant height (including tassel length) is 190 cm. The ratio of male parent plant height to female parent ear height is 2.02. This is not favorable for pollen dispersal and cross fertilization. A taller male gives a very clear advantage in easy spread of pollen. Further, a height disadvantage is amplified where the female is a single cross and male is inbred, as the robust female parent suppresses male parent growth. […] With less seed yield due to low seed set, seed production may be uneconomical in Hybrid A. Controlled use of Gibberellic Acid as foliar spray for male parent helped increase the plant height and thereby facilitated easier dispersal of pollen for better pollination success.
# When GA3 was sprayed on male parent at a given dosage, the last few internodes were elongated and the plant height was increased by 33 cm. The ratio of male parent plant height to female parent ear height increased from 2.02 in control (no GA3 spray) to 2.40 after spray. This spray was done when a minimum of 80% of the plants had the tassel wrapped in two leaves.
# A field trial was conducted to study the impact of GA3 on male parent plant height and also seed yield in hybrid seed production. GA3 dose of 10 g (dissolved in 100 ml alcohol) was sprayed in one acre of male plants (25% of area in 3:1 row ratio) when male tassel is wrapped up in two leaves.
# [2] = tested on: Inbred B male plants (corn); assay: GA3 spray to increase male inbred height, Inbred B (Brazil); conditions: for plant height increase: one application before flowering, 365 g GA3 (10% active ingredient) per hectare
# Procedure: (§1) GA3 spray to increase male inbred height was also tested with 2 more inbreds, Inbred B and Inbred C, in Brazil.
# Inbred B was sown in two sequential plantings, separated by 80 to 100 heat units. The first planting is referred to as the primary male; the second planting is referred to as the secondary male. The two male plantings were separated in the field by 40 cm; minimum distance from female rows was 70 cm.
# (§2) Data were collected after the following treatments: (a) control, (b) GA3: one application, before flowering, when the tassel is enveloped in 2 leaves; (b) GA3: 2 sequential applications, one at V6 stage and 1 application before flowering. The concentration of GA3 used was 365 g of GA3 (10% active ingredient) per hectare (which is approximately equivalent to 40 g of GA3 at 90% active ingredient), and the spray volume was 130 liters/hectare.
# (§3) The plot had 5.20 meter length of each row and 60 cm between plots. Ten male plants in sequence for each male row (primary male and secondary male separate) were measured and the average calculation was obtained and replicated 5 times in different plots. Measurements taken were plant height; length of primary rachis of the tassel; number of secondary tassel branches; and visual pollen score where 1=no pollen (sterile), 5=average amount of pollen, and 9=large amount of pollen.
# [3] = tested on: Inbred C male plants (corn); assay: GA3 spray to increase male inbred height, Inbred C (Brazil)
# Procedure: as §1, §2, §3
# [4] = Inbred B, one GA application vs control
# [5] = Inbred B, two sequential GA treatments (V6 and before flowering), relative to control, primary and secondary males
smiles,measurement,setting,value
"C=C1C[C@]23C[C@@]1(O)CC[C@H]2[C@@]12C=C[C@H](O)[C@@](C)(C(=O)O1)[C@H]2[C@@H]3C(=O)O [GA3, gibberellin A3]",yield improvement,"[1]; Hybrid A experimental plot, GA3 treatment vs control",32%
same,hybrid seed yield with GA3 treatment,"[1]; Hybrid A experimental plot, control 607 Kg/Acre",803 Kg/Acre
same,negative or deleterious effects on other plant processes,[1]; Hybrid A male parent after GA3 spray,without any negative or deleterious effects
same,increase in male parent plant height,"[1]; Hybrid A male parent, GA3 10 g sprayed when tassel wrapped in two leaves, vs control (no GA3 spray)",33 cm
same,male parent plant height increase,"[1]; Hybrid A male parent, after spraying GA3, from 190 cm",17%
same,male parent plant height after spraying GA3,"[1]; Hybrid A male parent, control 190 cm",223 cm
same,ratio of male parent plant height to female parent ear height after spray,"[1]; Hybrid A, after GA3 spray, control 2.02",2.40
same,plant height increase,[2]; Inbred B primary males,about 10 cm
same,plant height increase,[2]; Inbred B secondary males,~15 cm
same,height of male parent plants,"[2]; Inbred B, GA3 concentration increased to 16 g/1000 m^2 of male plants",increase further
same,number of secondary branches on the rachis,[2]; [4],did not change significantly
same,primary rachis length,[2]; [4],did not change significantly
same,pollen score,"[2]; Inbred B, one GA application vs control, visual score 1-9",did not change significantly
same,pollen score,[2]; [5],reduced
same,size of the main rachis,[2]; [5],reduced
same,effect of a second application compared with a single application,[3]; 2 sequential applications (V6 and before flowering),not more favorable than a single application
same,number of secondary branches on the rachis,[3]; one GA application vs control,did not change significantly
same,primary rachis length,[3]; one GA application vs control,did not change significantly
same,pollen score,"[3]; one GA application vs control, visual score 1-9",did not change significantly
same,plant height increase,[3]; one application of GA3,~12 cm
